GI50 data for three compounds are collected here from ChEMBL document CHEMBL1146822, “Adenine derived inhibitors of the molecular chaperone HSP90-SAR explained through multiple X-ray structures” (Bioorg Med Chem Lett, 2004).

One may read the GI50 as the concentration giving 50% growth inhibition. A lower GI50 goes with more potent growth inhibition.

The test system of this experiment is HCT-116. The experiment can be described thus: Cellular activity against human colon tumor cell line, HCT116. Format: functional.
With `C#CCCCn1c(Cc2cc(OC)c(OC)c(OC)c2Cl)nc2c(N)nc(F)nc21`, the 50% growth inhibitory concentration (GI50) came out at 3.9 µM. This counts as single-digit micromolar.

Regarding `C#CCCCn1c(Cc2cc(OC)ccc2OC)nc2c(N)nc(F)nc21`, growth was halved (GI50) at 3.3 µM.

Turning to `CCCCn1c(Cc2cc(OC)ccc2OC)nc2c(N)nc(F)nc21`, halving of growth (GI50) required 3.4 µM.
